# Assays:
# redroot pigweed = assay: Test Example 5: herbicidal effect by foliage application, plastic box (Table 20, symbol N); format: in vivo, redroot pigweed (Amaranthus retroflexus); conditions: foliage application, three weeks after application
# How it was run: (§1)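 Plants sown in sterilized diluvial soil and grown 14 days in a greenhouse at 25° C to 30° C, then sprayed on the foliage with the compound's emulsion diluted in water to a predetermined herbicide amount. Injury to weeds and crops scored three weeks after application on a visual rating scale.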
# barnyard grass [1] = assay: Test Example 3: herbicidal effect by foliage application, Wagner pot (Table 18, symbol H); format: in vivo, barnyard grass (Echinochloa crus-galli)
# How it was run: (§2)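 Plants were sown in alluvial soil held under 0.1–0.5 cm standing water and grown 14 days in a greenhouse at 25–30 °C. An emulsifiable formulation, water-diluted to the set dose, was then sprayed onto the foliage, and effects were scored three weeks later using previously defined criteria.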
# southern crabgrass = assay: Test Example 5: herbicidal effect by foliage application, plastic box (Table 20, symbol F); format: in vivo, southern crabgrass (Digitaria ciliaris); conditions: foliage application, three weeks after application
# How it was run: as §1
# velvetleaf = assay: Test Example 5: herbicidal effect by foliage application, plastic box (Table 20, symbol M); format: in vivo, velvetleaf (Abutilon theophrasti); conditions: foliage application, three weeks after application
# How it was run: as §1
# Chinese sprangletop = assay: Test Example 3: herbicidal effect by foliage application, Wagner pot (Table 18, symbol D); format: in vivo, chinese sprangletop (Leptochloa chinensis)
# How it was run: as §2
# persian speedwell = assay: Test Example 5: herbicidal effect by foliage application, plastic box (Table 20, symbol R); format: in vivo, Persian speedwell (Veronica persica); conditions: foliage application, three weeks after application
# How it was run: as §1
# wild oat = assay: Test Example 5: herbicidal effect by foliage application, plastic box (Table 20, symbol I); format: in vivo, wild oat (Avena fatua); conditions: foliage application, three weeks after application
# How it was run: as §1
# Italian ryegrass = assay: Test Example 5: herbicidal effect by foliage application, plastic box (Table 20, symbol K); format: in vivo, Italian ryegrass (Lolium multiflorum); conditions: foliage application, three weeks after application
# How it was run: as §1
# false cleavers = assay: Test Example 5: herbicidal effect by foliage application, plastic box (Table 20, symbol Q); format: in vivo, false cleavers (Galium spurium); conditions: foliage application, three weeks after application
# How it was run: as §1
# lambsquarters = assay: Test Example 5: herbicidal effect by foliage application, plastic box (Table 20, symbol O); format: in vivo, lambsquarters (Chenopodium album); conditions: foliage application, three weeks after application
# How it was run: as §1
# barnyard grass [2] = assay: Test Example 5: herbicidal effect by foliage application, plastic box (Table 20, symbol H); format: in vivo, barnyard grass (Echinochloa crus-galli); conditions: foliage application, three weeks after application
# How it was run: as §1
# blackgrass = assay: Test Example 5: herbicidal effect by foliage application, plastic box (Table 20, symbol J); format: in vivo, blackgrass (Alopecurus myosuroides); conditions: foliage application, three weeks after application
# How it was run: as §1
# rice flat sedge = assay: Test Example 3: herbicidal effect by foliage application, Wagner pot (Table 18, symbol E); format: in vivo, rice flat sedge (Cyperus iria)
# How it was run: as §2
# green foxtail = assay: Test Example 5: herbicidal effect by foliage application, plastic box (Table 20, symbol G); format: in vivo, green foxtail (Setaria viridis); conditions: foliage application, three weeks after application
# How it was run: as §1
# windgrass = assay: Test Example 5: herbicidal effect by foliage application, plastic box (Table 20, symbol L); format: in vivo, windgrass (Apera spica-venti); conditions: foliage application, three weeks after application
# How it was run: as §1
# chickweed = assay: Test Example 5: herbicidal effect by foliage application, plastic box (Table 20, symbol P); format: in vivo, common chickweed (Stellaria media); conditions: foliage application, three weeks after application
# How it was run: as §1
compound,measurement,setting,value
CCCC(=O)Oc1c(C)nn(C)c(=O)c1-c1c(-c2cc3c(cc2Cl)OCCO3)sc2ccccc12 [1-096],"N: redroot pigweed, herbicidal effect",redroot pigweed; AAH 485 g/ha,4 (Herbicidal rate of 70% or more and less than 90%)
same,"herbicidal effect on H (barnyard grass), rating 0-5",barnyard grass [1]; 485 g/ha,5 (Herbicidal rate of 90% or more (almost completely withered))
same,"F: southern crabgrass, herbicidal effect",southern crabgrass; AAH 485 g/ha,2 (Herbicidal rate of 20% or more and less than 40%)
same,"M: velvetleaf, herbicidal effect",velvetleaf; AAH 485 g/ha,1 (Herbicidal rate of 5% or more and less than 20%)
same,"herbicidal effect on D (Chinese sprangletop), rating 0-5",Chinese sprangletop; 485 g/ha,2 (Herbicidal rate of 20% or more and less than 40%)
same,"R: persian speedwell, herbicidal effect",persian speedwell; AAH 485 g/ha,5 (Herbicidal rate of 90% or more (almost completely withered))
same,"I: wild oat, herbicidal effect",wild oat; AAH 485 g/ha,0 (Herbicidal rate of 5% or less (almost no effect))
same,"K: Italian ryegrass, herbicidal effect",Italian ryegrass; AAH 485 g/ha,0 (Herbicidal rate of 5% or less (almost no effect))
same,"Q: false cleavers, herbicidal effect",false cleavers; AAH 485 g/ha,1 (Herbicidal rate of 5% or more and less than 20%)
same,"O: lambsquarters, herbicidal effect",lambsquarters; AAH 485 g/ha,4 (Herbicidal rate of 70% or more and less than 90%)
same,"H: barnyard grass, herbicidal effect",barnyard grass [2]; AAH 485 g/ha,3 (Herbicidal rate of 40% or more and less than 70%)
same,"J: blackgrass, herbicidal effect",blackgrass; AAH 485 g/ha,0 (Herbicidal rate of 5% or less (almost no effect))
same,"herbicidal effect on E (rice flat sedge), rating 0-5",rice flat sedge; 485 g/ha,0 (Herbicidal rate of 5% or less (almost no effect))
same,"G: green foxtail, herbicidal effect",green foxtail; AAH 485 g/ha,2 (Herbicidal rate of 20% or more and less than 40%)
same,"L: windgrass, herbicidal effect",windgrass; AAH 485 g/ha,0 (Herbicidal rate of 5% or less (almost no effect))
same,"P: chickweed, herbicidal effect",chickweed; AAH 485 g/ha,3 (Herbicidal rate of 40% or more and less than 70%)
CCCC(=O)Oc1c(C)nn(C)c(=O)c1-c1c(-c2ccc(Oc3ccccc3)cc2)sc2ccccc12 [1-150],"N: redroot pigweed, herbicidal effect",redroot pigweed; AAH 320 g/ha,4 (Herbicidal rate of 70% or more and less than 90%)
same,"herbicidal effect on H (barnyard grass), rating 0-5",barnyard grass [1]; 320 g/ha,2 (Herbicidal rate of 20% or more and less than 40%)
same,"F: southern crabgrass, herbicidal effect",southern crabgrass; AAH 320 g/ha,0 (Herbicidal rate of 5% or less (almost no effect))
same,"M: velvetleaf, herbicidal effect",velvetleaf; AAH 320 g/ha,3 (Herbicidal rate of 40% or more and less than 70%)
same,"herbicidal effect on D (Chinese sprangletop), rating 0-5",Chinese sprangletop; 320 g/ha,3 (Herbicidal rate of 40% or more and less than 70%)
same,"R: persian speedwell, herbicidal effect",persian speedwell; AAH 320 g/ha,5 (Herbicidal rate of 90% or more (almost completely withered))
same,"I: wild oat, herbicidal effect",wild oat; AAH 320 g/ha,0 (Herbicidal rate of 5% or less (almost no effect))
same,"K: Italian ryegrass, herbicidal effect",Italian ryegrass; AAH 320 g/ha,0 (Herbicidal rate of 5% or less (almost no effect))
same,"Q: false cleavers, herbicidal effect",false cleavers; AAH 320 g/ha,5 (Herbicidal rate of 90% or more (almost completely withered))
same,"O: lambsquarters, herbicidal effect",lambsquarters; AAH 320 g/ha,2 (Herbicidal rate of 20% or more and less than 40%)
same,"H: barnyard grass, herbicidal effect",barnyard grass [2]; AAH 320 g/ha,0 (Herbicidal rate of 5% or less (almost no effect))
same,"J: blackgrass, herbicidal effect",blackgrass; AAH 320 g/ha,0 (Herbicidal rate of 5% or less (almost no effect))
same,"herbicidal effect on E (rice flat sedge), rating 0-5",rice flat sedge; 320 g/ha,3 (Herbicidal rate of 40% or more and less than 70%)
same,"G: green foxtail, herbicidal effect",green foxtail; AAH 320 g/ha,0 (Herbicidal rate of 5% or less (almost no effect))
same,"L: windgrass, herbicidal effect",windgrass; AAH 320 g/ha,0 (Herbicidal rate of 5% or less (almost no effect))
same,"P: chickweed, herbicidal effect",chickweed; AAH 320 g/ha,5 (Herbicidal rate of 90% or more (almost completely withered))

# — patent publication US20230085307A1, “PYRIDAZINONE COMPOUND AND HERBICIDE” (NISSAN CHEMICAL CORPORATION, priority 2019, published 2023)
